Test results taken from paper PMC2248166, “Quantitative peptide binding motifs for 19 human and mouse MHC class I molecules derived using positional scanning combinatorial peptide libraries” (Immunome Research, 2008).

Tests used:
HLA B*5301 = HLA B*5301 (Homo sapiens, UniProt P01889, A329T/A93T/A95T/C349S/D201E/D98Y/E176V/E187L/E204Q/E69T/G107R/I218V/K202T/L105A/L119I/N104I/Q94N/R106L/R155S/R180L/S101N/S121R/S35A/S48A/T118I/V127L/V306I/V36M/Y140S/Y91F); type: binding
HLA B*3501 = HLA B*3501 (Homo sapiens, UniProt P01889, A329T/A93T/A95T/C349S/D201E/D98Y/E176V/E187L/E204Q/E69T/I218V/K202T/L119I/Q94N/R155S/R180L/S121R/S35A/S48A/T118I/V127L/V306I/V36M/Y140S/Y91F); type: binding
HLA B*2705 = HLA B*2705 (Homo sapiens, UniProt P01889, D138H/D201E/E176V/E204Q/G107R/H137Y/K202T/N104T/N87E/Q56L/Q94K/R106L/R155S/R180L/S101D/S121N/S48T/Y140D/Y33H/Y91C); type: binding; conditions: positional scanning combinatorial 9-mer library; normalized to 1.0 for the best residue at each position
HLA B*0702 = HLA B*0702 (Homo sapiens, UniProt P01889); type: binding; conditions: positional scanning combinatorial 9-mer library; normalized to 1.0 for the best residue at each position
HLA A*0201 = HLA A*0201 (Homo sapiens, UniProt P04439, D140Y/D185E/D98H/E176V/E277Q/G131W/G231S/I119V/I121R/I166T/I218V/L300P/L318F/N151K/N90K/P208A/P217A/Q86G/Q94H/R138H/R169H/T345S); conditions: positional scanning combinatorial 9-mer library; normalized to 1.0 for the best residue at each position
HLA B*5802 = HLA B*5802 (Homo sapiens, UniProt P01889, A329T/C349S/D201E/D98Y/E176V/E187L/E204Q/E69T/G107R/I218V/I90N/K202T/L105A/N104I/N87E/Q89R/Q94S/R106L/R155S/R180L/R86G/S101N/S121W/S35A/S48A/V127L/V306I/V36M/Y140S/Y91M); type: binding
HLA B*5101 = HLA B*5101 (Homo sapiens, UniProt P01889, A329T/A93T/A95T/C349S/D138N/D201E/D98Y/E187L/E204Q/E69T/G107R/I218V/K202T/L105A/L119W/N104I/Q94N/R106L/R155S/R180L/S101N/S121T/S35A/S48A/V306I/V36M/Y195H/Y91F); type: binding
HLA A*3201 = HLA A*3201 (Homo sapiens, UniProt P04439, A270S/D101S/D185E/E176V/E277Q/F133L/G103R/G107R/G231S/H175R/I121M/I218V/I322F/K168Q/L105A/L300P/L318F/M331R/P208A/P217A/Q94H/R106L/R138Q/S129P/T104I/T323A/T345S/V100E/V321M/V358M); assay: biochemical; type: binding
HLA A*3001 = HLA A*3001 (Homo sapiens, UniProt P04439, D140H/D185E/E176W/F33S/G80R/H175R/K168Q/R138E/R41S); assay: biochemical; type: binding
H-2 D^b = H-2 D^b (Mus musculus, UniProt P01899); type: binding
Chain of H-2 D^b (P01887 21-119): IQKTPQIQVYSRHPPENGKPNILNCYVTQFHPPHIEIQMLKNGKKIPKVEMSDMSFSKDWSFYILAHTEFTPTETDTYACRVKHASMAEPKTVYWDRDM
Chain of H-2 D^b (P01899 25-362): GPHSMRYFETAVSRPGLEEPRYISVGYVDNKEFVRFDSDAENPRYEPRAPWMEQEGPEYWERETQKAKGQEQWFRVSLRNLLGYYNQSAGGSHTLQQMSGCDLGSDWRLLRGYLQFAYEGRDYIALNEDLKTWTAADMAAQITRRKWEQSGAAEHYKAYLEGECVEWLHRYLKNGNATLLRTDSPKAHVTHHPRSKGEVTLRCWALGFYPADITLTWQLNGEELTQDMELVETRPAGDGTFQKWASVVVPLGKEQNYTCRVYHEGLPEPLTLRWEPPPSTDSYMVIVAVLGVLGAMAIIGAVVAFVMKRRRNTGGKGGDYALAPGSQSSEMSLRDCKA

H-2 D^d = H-2 D^d (Mus musculus, UniProt P01900); type: binding
Chain of H-2 D^d (P01900 whole entry, looked up): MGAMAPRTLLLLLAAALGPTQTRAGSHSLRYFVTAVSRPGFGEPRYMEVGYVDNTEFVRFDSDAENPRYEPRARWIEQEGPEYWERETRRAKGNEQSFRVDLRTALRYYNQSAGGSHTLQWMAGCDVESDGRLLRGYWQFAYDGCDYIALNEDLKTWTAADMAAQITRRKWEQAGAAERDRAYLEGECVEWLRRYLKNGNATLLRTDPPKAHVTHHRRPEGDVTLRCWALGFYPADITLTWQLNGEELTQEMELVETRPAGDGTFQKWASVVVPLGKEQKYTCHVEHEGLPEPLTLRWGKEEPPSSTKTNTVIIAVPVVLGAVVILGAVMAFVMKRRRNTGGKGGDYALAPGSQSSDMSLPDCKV

HLA A*6802 = HLA A*6802 (Homo sapiens, UniProt P04439, A269V/D140Y/D185E/E176V/E277Q/E87N/F33Y/G231S/I121R/I166T/I218V/L180W/L300P/L318F/N151K/P208A/P217A/Q86R/R138H/R169H/S129P/T345S/V36M); type: binding
HLA B*1501 = HLA B*1501 (Homo sapiens, UniProt P01889, A329T/A93T/A95T/C349S/D201E/D98Y/E187L/E204Q/E69M/E70A/K202T/N87E/Q94N/R155S/R180W/S121R/S35A/S48A/V306I/V36M/Y140S/Y91S); assay: biochemical; type: binding
HLA B*5401 = HLA B*5401 (Homo sapiens, UniProt P01889, A329T/C349S/D138N/D201E/E176V/E187T/E204Q/E69G/I76V/K202T/L119W/R155S/R180L/S121T/S35A/S48A/V127L/V306I/V36M/Y140L); type: binding
HLA B*5801 = HLA B*5801 (Homo sapiens, UniProt P01889, A329T/C349S/D201E/D98Y/E176V/E187L/E204Q/E69T/G107R/I218V/I90N/K202T/L105A/L119I/N104I/N87E/Q89R/Q94S/R106L/R155S/R180L/R86G/S101N/S121R/S35A/S48A/T118I/V127L/V306I/V36M/Y140S/Y91M); type: binding
HLA B*0801 = HLA B*0801 (Homo sapiens, UniProt P01889, A93T/A95T/D138N/E176V/E187T/K202T/Q94N/R180D/S35A/V36M/Y33D/Y91F); assay: biochemical; type: binding
HLA B*1503 = HLA B*1503 (Homo sapiens, UniProt P01889, A329T/A93T/A95T/C349S/D201E/D98Y/E187L/E204Q/K202T/N87E/Q94N/R155S/R180L/S121R/S35A/V306I/V36M/Y140S/Y91S); assay: biochemical; type: binding
H-2 K^k = H-2 K^k (Mus musculus, UniProt P04223); type: binding
Chain of H-2 K^k (P01887 21-119): as the sequence (P01887 21-119) above
Chain of H-2 K^k (P04223 22-369): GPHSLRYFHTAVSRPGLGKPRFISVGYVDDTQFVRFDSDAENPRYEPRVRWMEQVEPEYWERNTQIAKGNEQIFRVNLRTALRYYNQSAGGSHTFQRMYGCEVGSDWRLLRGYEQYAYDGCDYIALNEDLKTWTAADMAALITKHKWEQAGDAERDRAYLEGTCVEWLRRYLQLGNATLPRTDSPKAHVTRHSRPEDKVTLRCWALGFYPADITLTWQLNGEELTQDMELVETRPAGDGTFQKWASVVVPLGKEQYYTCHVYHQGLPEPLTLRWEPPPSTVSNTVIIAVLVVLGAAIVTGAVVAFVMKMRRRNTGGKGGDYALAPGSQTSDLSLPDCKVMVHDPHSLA

Sequence	Normalized average relative binding affinity (ARB), HLA B*5301 (HLA B*5301)	Normalized average relative binding affinity (ARB), HLA B*3501 (HLA B*3501)	Normalized average relative binding affinity (ARB), HLA B*2705 (HLA B*2705)	Normalized average relative binding affinity (ARB), HLA B*0702 (HLA B*0702)	Normalized average relative binding affinity (ARB), HLA A*0201 (HLA A*0201)	Normalized average relative binding affinity (ARB), HLA B*5802 (HLA B*5802)	Normalized average relative binding affinity (ARB), HLA B*5101 (HLA B*5101)	Normalized average relative binding affinity (ARB), HLA A*3201 (HLA A*3201)	Normalized average relative binding affinity (ARB), HLA A*3001 (HLA A*3001)	Normalized average relative binding affinity (ARB), H-2 Db (H-2 D^b)	Normalized average relative binding affinity (ARB), H-2 Dd (H-2 D^d)	Normalized average relative binding affinity (ARB), HLA A*6802 (HLA A*6802)	Normalized average relative binding affinity (ARB), HLA B*1501 (HLA B*1501)	Normalized average relative binding affinity (ARB), HLA B*5401 (HLA B*5401)	Normalized average relative binding affinity (ARB), HLA B*5801 (HLA B*5801)	Normalized average relative binding affinity (ARB), HLA B*0801 (HLA B*0801)	Normalized average relative binding affinity (ARB), HLA B*1503 (HLA B*1503)	Normalized average relative binding affinity (ARB), H-2 Kk (H-2 K^k)
XXAXXXXXX [3064.0041]	0.0065	0.19	0.21	0.0097	0.43	0.047	0.47	0.24	0.0077	0.022	0.0028	0.0051	0.23	0.00077	0.32	0.12	0.29	0.0061
XXHXXXXXX [3064.0047]	0.059	0.094	0.26	0.39	0.27	0.42	0.60	0.24	0.089	0.20	0.0028	0.14	0.68	0.013	0.19	0.35	0.19	0.72
XXRXXXXXX [3064.0055]	0.029	0.074	0.16	0.63	0.019	0.38	0.33	0.19	1.0	0.023	0.0031	0.018	0.69	0.062	0.058	1.0	0.25	0.19
XRXXXXXXX [3064.0035]	0.0045	0.068	1.0	0.0078	0.0016	0.030	0.022	0.0090	0.048	0.036	0.028	0.0069	0.024	0.0042	0.017	0.30	0.059	0.0071
